Reference: US20050171215A1, “Germicidal compositions containing halogenated phthalaldehyes, and methods of using such compositions for disinfection or sterilization” (Ethicon, Inc., priority 2004, published 2005)
Like-named read-outs stand apart in the source and are kept apart here. Blank lines part the entries; values can stand above or below the compound they belong to.

Assays:
[1] = system: Mycobacterium terrae bacteria; assay: bacterial suspension test; assay type: cell-based; conditions: for Germicidal Efficacy: summary Table 14
Procedure: In Examples 1 to 3, which follow, several germicidal solutions containing either the 4-fluoro-, 4-chloro-, or 4-bromo-phthalaldehyde compound were tested to determine their effectiveness in killing at least 1×10^6/mL of Mycobacterium terrae bacteria using a bacterial suspension test. The bacterial suspension test that was employed is described in Section VII.
The solutions were prepared by adding the appropriate amounts of the germicidal compounds to an aqueous solution. Unless otherwise mentioned all concentrations reported herein are expressed in (w/v)%. The pH of the solution was not adjusted. The tests were conducted at a temperature of about 20° C. (room temperature). The results are presented in terms of log reductions/mL. It is understood that these examples, as well as the other examples herein, are to be construed as merely illustrative, and not limiting.
In this test method, 9 mL of the germicide to be tested is placed in a tube, put into a water bath and allowed to come to the desired temperature. One mL of the test organism, including at least 7 logs/mL of Mycobacterium terrae bacteria, is added to the 9 mL of the germicide to be tested. […] It will be appreciated by those skilled in the art that other concentrations may be utilized by proper dilution and accounting.
At appropriate time intervals, 1 mL aliquots of the germicide-cell suspension were removed and added directly into 9 mL of a 1% glycine solution (neutralizer) and mixed thoroughly to neutralize the germicide in the transferred suspension. The glycine solution was prepared from solid glycine, which is available from VWR Scientific Products, among others. The above-identified 10 mL neutralized solution was then poured through a membrane filter having an average pore size of 0.45 micrometers. The filter was then rinsed twice with at least 150 mL of the 1% glycine solution per rinse. The filter was then placed on an agar plate and incubated for twenty-one days at 37° C. In the above procedure, if dilution was needed, then the 1 mL germicidal-cell suspension was diluted in 99 mL of a phosphate buffer before addition to the 9 mL of the 1% glycine solution. The phosphate buffer was DiLu-LoK™ Butterfields Phosphate Buffer, available from Hardy Diagnostics, of Santa Maria, Calif.
The surviving colonies are then counted. The data is plotted as S/So vs. time. So is the initial count of the bacteria in the above 10 mL solution which is at least 10^6 bacteria/mL, and S is the surviving bacteria from the above filter on the agar plate. The results of the experiments were presented in terms of log reductions. Log reduction is the difference between log(So) and log(S). As one example, if log(So)=6.2, and if there were 100 survivors, then the log(S)=2, and the log reduction was reported as 4.2.

solubility in water = assay type: physicochemical

Compound: 4-pyridinyl-propanedial
- Log Reductions/mL ([1]; Saturated (˜2.3% w/v), 5 min, 20° C.): 4.0 log reductions/mL

Compound: O=CC(c1ccccc1)C(O)S(=O)(=O)[O-].[Na+] (stereo not shown) [1-hydroxy-3-oxo-2-phenyl-propane-1-sulfonic acid, sodium salt]
- Log Reductions/mL ([1]; 0.6%, 20° C., 60 min): Total Kill
- log reduction at 0.6 % ([1]; Mycolicibacter terrae, 5 min, 0.6%, 20° C., 5 min, read-out: Log Reductions/mL): 2.1
- log reduction at 0.6 % ([1]; Mycolicibacter terrae, 20 min, 0.6%, 20° C., 20 min, read-out: Log Reductions/mL): 2.5
- log reduction at 0.6 % ([1]; Mycolicibacter terrae, 25 min, 0.6%, 20° C., 25 min, read-out: Log Reductions/mL): 2.9

Compound: O=CC(C=O)c1cccc(C(=O)O)c1[N+](=O)[O-] [3-(1-formyl-2-oxoethyl)-2-nitro-benzoic acid]
- log reduction at 2.1 % ([1]; Mycolicibacter terrae, 5 min, Saturated (˜2.1% w/v), 5 min, 20° C., read-out: Log Reductions/mL): 4

Compound: O=Cc1ccc(Br)cc1C=O [4-bromo-phthalaldehyde]
- Log Reductions/mL ([1]; 0.1%, 20° C., 30 minutes exposure): Total Kill
- time to achieve a total kill of the bacteria ([1]; about 0.1%, 20° C.): 10 to 30 min

Compound: O=Cc1ccc(Cl)cc1C=O [4-chloro-phthalaldehyde]
- Log Reductions/mL ([1]; 2.7 w/v % (in 20% isopropanol), 20° C., 5 min): Total Kill
- concentration effective to achieve a total kill of all bacteria ([1]; in five minutes, 20° C.): 0.2 to 2.7%

Compound: O=Cc1ccc(F)cc1C=O [4-fluoro-phthalaldehyde]
- Log Reductions/mL ([1]; 0.25%, 20° C., 60 minutes exposure): Total Kill
- time to achieve a total kill of the bacteria ([1]; about 0.25%, 20° C.): 30 to 60 min

Compound: O=Cc1ccccc1C(O)S(=O)(=O)[O-].[Na+] (stereo not shown) [(2-formyl-phenyl)-hydroxy-methane sulfonic acid, sodium salt]
- Log Reductions/mL ([1]; 9.1%, 20° C., 5 min): Confluent

Compound: O=Cc1cccc(C=O)c1 [IPA, isophthalaldehyde, reference compound]
- Log Reductions/mL ([1]; 0.3%, dissolved in 20% isopropanol, 20° C., 5 min (Table 11)): Confluent
- Log Reductions/mL ([1]; 0.3%, dissolved in 20% isopropanol, 20° C., 5 min (Table 15)): Confluent
- Germicidal Efficacy [1]: Poor

- solubility in water (solubility in water): about 5 % by weight
Compound: O=Cc1ccccc1C=O [OPA, phthalaldehyde, reference compound]
- log reduction at 0.14 % ([1]; Mycolicibacter terrae, 5 min, 0.14%, 20° C., 5 min, read-out: Log Reductions/mL): 4.8
- log reduction at 0.28 % ([1]; Mycolicibacter terrae, 5 min, 0.28%, 20° C., 5 min, read-out: Log Reductions/mL): 5.5
- Germicidal Efficacy [1]: Good

Compound: O=Cc1ccc(C=O)cc1 [TPA, terephthalaldehyde, reference compound]
- Log Reductions/mL ([1]; 0.2%, dissolved in 20% isopropanol, 20° C., 5 min): Confluent
- Germicidal Efficacy [1]: Poor

- solubility in water (solubility in water): about 1%
Compound: O=CC(C=O)c1ccccc1 [phenyl-propanedial]
- Log Reductions/mL ([1]; 0.4%, 20° C., 60 min): Total Kill
- Log Reductions/mL ([1]; 0.44%, 20° C., 60 min): Total Kill
- Log Reductions/mL ([1]; 0.66%, 20° C., 15 min): Total Kill
- Log Reductions/mL ([1]; 0.7%, 20° C., 15 min): Total Kill
- Log Reductions/mL ([1]; (˜1%), 20° C., 5 min): 4.5 log reductions/mL
- log reduction at 0.66 % ([1]; Mycolicibacter terrae, 5 min, 0.66%, 20° C., 5 min, read-out: Log Reductions/mL): < 2.5
- log reduction at 1 % ([1]; Mycolicibacter terrae, 5 min, ˜1%, 20° C., 5 min (Table 15), read-out: Log Reductions/mL): 4.5
- log reduction at 0.66 % ([1]; Mycolicibacter terrae, 10 min, 0.66%, 20° C., 10 min, read-out: Log Reductions/mL): 2.5
- log reduction at 0.7 % ([1]; Mycolicibacter terrae, 10 min, 0.7%, 20° C., 10 min, read-out: Log Reductions/mL): 2.5
- log reduction at 0.3 % ([1]; Mycolicibacter terrae, 0.5 h, 0.3%, 20° C., 30 min, read-out: Log Reductions/mL): 2.1
- log reduction at 0.33 % ([1]; Mycolicibacter terrae, 0.5 h, 0.33%, 20° C., 30 min, read-out: Log Reductions/mL): 2.1
- log reduction at 0.4 % ([1]; Mycolicibacter terrae, 0.5 h, 0.4%, 20° C., 30 min, read-out: Log Reductions/mL): 2.5
- log reduction at 0.44 % ([1]; Mycolicibacter terrae, 0.5 h, 0.44%, 20° C., 30 min, read-out: Log Reductions/mL): 2.5
- log reduction at 0.2 % ([1]; Mycolicibacter terrae, 1 h, 0.2%, 20° C., 60 min, read-out: Log Reductions/mL): 2.1
- log reduction at 0.22 % ([1]; Mycolicibacter terrae, 1 h, 0.22%, 20° C., 60 min, read-out: Log Reductions/mL): 2.1
- concentration effective to achieve a total kill ([1]; within 15 minutes, 20° C.): 0.4 to 0.7%
- concentration effective to achieve a total kill of the bacteria ([1]; within 60 minutes, 20° C.): 0.3 to 0.4%
